Experimental data published in patent US20260191968A1, “PROTAC DEGRADERS OF MLLT1 AND/OR MLLT3” (DARK BLUE THERAPEUTICS LTD, priority 2024, published 2026).

Key:
human AML = experiment: in vivo mouse model of human AML (tumour growth); details: oral administration, procedure of Example 236, FIG. 1
MV4-11 cells = experiment: MV4-11 cellular proliferative assay, Assay Format A (CellTiter-Glo, 120 hours); assay type: cell-based; details: Homo sapiens
Procedure, shortened: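 Over 120 h, MV4-11 cells seeded at 50 cells/well in IMDM/10% FBS were exposed to compound (10 semi-log dilutions, 30 μM top). Viability was read by CellTiter-Glo luminescence. Signals were normalised to DMSO and reference-compound wells, and AC50 came from a Hill fit.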

MLLT3 = target: T1, MLLT3 (Mus musculus, UniProt A2AM29); experiment: MLLT3 degradation assay in NIH/3T3 cells (JESS), dose response, 5 h; assay type: cell-based
T1 construct: host or cells: NIH/3T3
T1 sequence (A2AM29 1-569): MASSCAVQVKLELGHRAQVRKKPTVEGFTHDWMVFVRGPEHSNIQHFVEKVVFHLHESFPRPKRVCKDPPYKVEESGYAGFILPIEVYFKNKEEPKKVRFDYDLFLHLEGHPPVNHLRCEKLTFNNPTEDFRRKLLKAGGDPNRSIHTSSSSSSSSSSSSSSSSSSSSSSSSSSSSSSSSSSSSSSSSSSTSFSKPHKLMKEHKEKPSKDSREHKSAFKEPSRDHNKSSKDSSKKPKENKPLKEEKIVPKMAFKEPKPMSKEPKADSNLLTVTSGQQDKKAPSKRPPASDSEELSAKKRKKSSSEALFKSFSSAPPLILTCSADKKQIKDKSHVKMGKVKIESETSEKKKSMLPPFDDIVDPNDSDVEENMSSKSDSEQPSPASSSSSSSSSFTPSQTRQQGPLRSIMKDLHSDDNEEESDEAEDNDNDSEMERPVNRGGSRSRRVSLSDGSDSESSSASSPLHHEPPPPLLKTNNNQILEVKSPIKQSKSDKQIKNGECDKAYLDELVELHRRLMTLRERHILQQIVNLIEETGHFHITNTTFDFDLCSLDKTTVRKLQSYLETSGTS
Protocol: MLLT3 degradation efficacy of compounds was tested in an automated chemiluminescent detection system (JESS, Cat #004-650). NIH/3T3 (#CRL-1658, ATCC) were seeded at a density of 0.5 million cells/well in a cell culture treated 6-well cell culture plate in 2 mL of complete medium (DMEM+10% FBS+IX Penicillin-Streptomycin) and incubated at 37° C., 5% CO2. The next day, 10 mM DMSO stocks were prepared, and cells were treated with eight concentrations of test compounds, starting from 100 nM, 5-fold dilution, at a final DMSO concentration of 0.1% and incubated for 5 h at 37° C., 5% CO2. Post incubation, cells were washed with HBSS and lysed in 70 μL of RIPA buffer supplemented with Protease inhibitors (sc-24948; Santa Cruz). Later, protein estimation was done using BCA protein assay kit (23228; Pierce). 4 μg protein lysate (4 μL of 1 μg/μL lysate) was loaded into each well of the JESS cartridge (SM-W004; Bio-techne) and the JESS run was performed using 1:200 dilution of anti-mouse MLLT3 antibody (#47577; CST) and 1:800 dilution of anti-human GAPDH antibody (2118; Cell signaling technology) with anti-rabbit secondary detection module (DM-001; Bio-Techne). Post run, data was analysed using “Compass for SW” software for chemiluminescent detection. Peak fit was done using “dropped lines” method. […]

Structure (SMILES): CN1CCC[C@@H]1c1cc2cnc(NC(=O)c3ccc(CCCC#Cc4cccc5c4CN(C4CCC(=O)NC4=O)C5=O)cc3)cc2[nH]1 (stereo partly drawn) [Example 55, 4-(5-(2-(2,6-dioxopiperidin-3-yl)-1-oxoisoindolin-4-yl)pent-4-yn-1-yl)-N-(2-((R)-1-methylpyrrolidin-2-yl)-1H-pyrrolo[3,2-c]pyridin-6-yl)benzamide]
- tumour growth (human AML): reduction in tumour growth
- IC50 (MV4-11 cells): ≤ 100 nM
- DC50 (MLLT3): 0.8 nM
- Dmax (MLLT3; NIH3T3, maximum % degradation observed): 92%
